Common to all, as to type: cell-based
For test [1], the target named is T1, human S1P4 receptor (S1PR4) (Homo sapiens, UniProt O95977).
T1 construct: host or cells: CHO-K1
T1 sequence (O95977 1-384): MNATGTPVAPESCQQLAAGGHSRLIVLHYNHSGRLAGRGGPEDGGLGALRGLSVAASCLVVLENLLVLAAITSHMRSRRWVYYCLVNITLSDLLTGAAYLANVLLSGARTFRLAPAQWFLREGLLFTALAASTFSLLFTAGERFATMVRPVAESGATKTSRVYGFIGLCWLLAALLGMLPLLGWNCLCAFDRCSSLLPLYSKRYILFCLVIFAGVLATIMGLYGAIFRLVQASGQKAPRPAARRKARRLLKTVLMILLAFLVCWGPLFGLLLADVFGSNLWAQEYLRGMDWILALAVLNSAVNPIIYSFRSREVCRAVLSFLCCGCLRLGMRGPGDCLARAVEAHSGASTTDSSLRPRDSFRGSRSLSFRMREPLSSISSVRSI
The experiment in a line: Intracellular Ca2+ release (method 1), agonist potency, S1P4. The note with it: CHO-K1 cells expressing human S1PR4. As for the experimental part:
(§1) Agonistic activity and efficacy of compounds was assessed in recombinant cells using method 1 described below.
(§2) Agonist potency and efficacy were assessed by measurement of intracellular Ca^2+ release. Recombinant CHO-K1 cells (Euroscreen, Brussels, Belgium) expressing human S1PR5, S1PR1, S1PR3 or S1PR4 receptors, aequorin, and GTP binding protein Gq/i5 were cultured using a medium containing nutrient mixture F-12 Ham (Sigma-Aldrich) with 10% FBS, and 100 μg/mL gentamicin and equilibrated at 5% CO2.
(§3) 15,000 cells in 20 μL medium were seeded into Biocoat poly-D-Lysine coated 384 well plates (Becton Dickinson #35-6663) and grown to 95% confluency after 24 h.
(§4) Culture medium was replaced by an assay buffer consisting of HBBS with Ca^2+ and Mg^2+ (Invitrogen #14025-050), 20 mmol/L Hepes (Sigma-Aldrich #H-3375), 2.5 mmol/L probenecid (Sigma-Aldrich #P-8761, and 0.1% BSA (Sigma-Aldrich #A-7030) pH 7.4. The Calcium 5 no-wash FLIPR assay kit (Molecular Devices #5000625) was performed as described in the kit instructions. Cells were incubated with Calcium 5 dye for 1 h at 37° C., 5% CO2 in the dark. After 45 min adaptation to RT assessment of agonist stimulation of intracellular Ca^2+ release was performed by addition of test compounds at various concentrations obtained by serial dilution. Phospho-fingolimod was used as positive control and reference agonist (intrinsic activity 100%).
(§5) Agonism of test compounds at the human S1Px receptors were characterized by the EC50 values (potencies) deduced from a nonlinear 4 parametric logistic curve fit to the measured fluorescence data after normalization to the lower and upper plateaus of the fitted reference agonist's (phospho-fingolimod)effect curve and by their efficacy (Emax) values represented by their maximum achievable effects in % of the reference agonist's efficacy, which is defined as an Emax of 100%.

Test [2] concerns the target T2, human S1P1 receptor (S1PR1) (Homo sapiens, UniProt P21453).
T2 construct: host or cells: CHO-K1
The experiment in a line: Intracellular Ca2+ release (method 1), agonist potency, S1P1. The settings on record: CHO-K1 cells expressing human S1PR1. As for the experimental part:
as §1, §2, §3, §4, §5

The target in test [3] is T3, human S1P5 receptor (S1PR5) (Homo sapiens, UniProt Q9H228).
T3 construct: host or cells: CHO-K1
Briefly: Intracellular Ca2+ release (method 1), agonist potency and efficacy, S1P5. The note with it: for Emax: maximum effect in % of reference agonist phospho-fingolimod (100%), read-out: hS1P5 EMax; for EC50: recombinant CHO-K1 cells expressing human S1PR5, aequorin, Gq/i5, Ca2+ release, read-out: S1P5 EC50 range. As for the experimental part: as §1, §2, §3, §4, §5

Test [4] addresses T4, human S1P3 receptor (S1PR3) (Homo sapiens, UniProt Q99500).
T4 construct: host or cells: CHO-K1
Briefly: Intracellular Ca2+ release (method 1), agonist potency, S1P3. The settings on record: CHO-K1 cells expressing human S1PR3. As for the experimental part: as §1, §2, §3, §4, §5

Counter-ions that a name gives are not always drawn.

T4 sequence (Q99500 whole entry): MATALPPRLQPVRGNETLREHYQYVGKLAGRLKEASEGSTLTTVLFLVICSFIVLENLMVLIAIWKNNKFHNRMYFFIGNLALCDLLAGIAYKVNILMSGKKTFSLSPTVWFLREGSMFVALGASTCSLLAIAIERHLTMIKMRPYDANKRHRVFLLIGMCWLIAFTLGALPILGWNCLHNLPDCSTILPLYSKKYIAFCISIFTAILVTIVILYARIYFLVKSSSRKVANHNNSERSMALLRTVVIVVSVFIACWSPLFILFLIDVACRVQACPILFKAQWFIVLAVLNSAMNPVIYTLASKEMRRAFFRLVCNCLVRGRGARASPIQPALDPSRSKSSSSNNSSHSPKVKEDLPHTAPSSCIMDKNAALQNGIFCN
T2 sequence (P21453 whole entry): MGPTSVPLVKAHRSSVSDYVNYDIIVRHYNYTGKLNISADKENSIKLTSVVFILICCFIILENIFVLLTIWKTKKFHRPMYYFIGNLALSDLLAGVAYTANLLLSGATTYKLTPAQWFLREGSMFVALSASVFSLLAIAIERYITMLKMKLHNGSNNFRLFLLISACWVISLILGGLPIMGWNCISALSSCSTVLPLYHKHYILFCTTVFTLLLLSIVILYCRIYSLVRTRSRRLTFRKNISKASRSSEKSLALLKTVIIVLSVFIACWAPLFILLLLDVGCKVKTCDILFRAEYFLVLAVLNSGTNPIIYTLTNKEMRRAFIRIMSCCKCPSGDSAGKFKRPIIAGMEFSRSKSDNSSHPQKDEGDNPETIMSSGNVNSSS
T3 sequence (Q9H228 whole entry): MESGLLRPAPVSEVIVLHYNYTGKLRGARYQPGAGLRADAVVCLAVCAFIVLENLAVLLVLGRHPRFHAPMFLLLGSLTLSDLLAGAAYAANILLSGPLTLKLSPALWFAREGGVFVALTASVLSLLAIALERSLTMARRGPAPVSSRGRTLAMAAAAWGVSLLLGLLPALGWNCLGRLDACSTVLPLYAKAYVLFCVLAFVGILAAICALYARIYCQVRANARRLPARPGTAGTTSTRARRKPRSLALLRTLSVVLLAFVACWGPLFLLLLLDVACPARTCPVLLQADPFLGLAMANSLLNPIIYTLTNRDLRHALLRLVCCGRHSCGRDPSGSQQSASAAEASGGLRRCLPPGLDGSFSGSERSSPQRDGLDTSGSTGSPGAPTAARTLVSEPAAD

Consider `Cc1cccnc1C#Cc1ccc2c(c1)C1(CC1)CN(CCC(=O)O)C2` [Compound 43, 3-(6′-((3-methylpyridin-2-yl)ethynyl)-1′H-spiro[cyclopropane-1,4′-isoquinolin]-2′(3′H)-yl)propanoic acid acetic acid salt (1:1)], for which the EC50 (usually the concentration that produces a half-maximal response) in test [1] (cells given as bound) is over 1000 nM; in test [2] (cells given as bound) it was over 1000 nM; in test [3], 1000 to 10000 nM; in test [4], over 1000 nM. Besides, in test [3], the Emax (in general, the greatest response seen or fitted, relative to the assay's reference) lay in the range of 50 to 100%.

`O=C(O)CCN1Cc2ccc(C#Cc3c(F)cccc3F)cc2C2(CC2)C1` [Compound 36, 3-(6′-((2,6-difluorophenyl)ethynyl)-1′H-spiro[cyclopropane-1,4′-isoquinolin]-2′(3′H)-yl)propanoic acid acetic acid salt (1:1)]: the EC50 in test [1] was 100 to 1000 nM; in test [2] (cells given as bound) it was over 1000 nM; in test [3], under 10 nM; in test [4], over 1000 nM. Moreover, in test [3], the Emax is 50 to 100%.

In the case of `O=C(O)CCCN1Cc2ccc(OCc3ccc(Cl)c(Cl)c3)cc2C2(CC2)C1` [Compound 26, 4-(6′-((3,4-Dichlorobenzyl)oxy)-1′H-spiro[cyclopropane-1,4′-isoquinolin]-2′(3′H)-yl)butanoic acid], the EC50 in test [1] is 10 to 100 nM; in test [2] (cells given as bound), over 1000 nM; in test [3], 10 to 100 nM; in test [4] it was over 1000 nM. The Emax in test [3] lay in the range of 50 to 100%.

On to `Cc1ccccc1C#Cc1ccc2c(c1)C1(CC1)CN(CCC(=O)O)C2` [Compound 37, 3-(6′-(o-tolylethynyl)-1′H-spiro[cyclopropane-1,4′-isoquinolin]-2′(3′H)-yl)propanoic acid acetic acid salt (1:1)], for which the EC50 in test [1] was 100 to 1000 nM; in test [2] (cells given as bound) it was over 1000 nM; in test [3], 10 to 100 nM; in test [4], over 1000 nM. Besides, in test [3], the Emax fell in the range of 50 to 100%.

With `O=C(O)CCN1Cc2ccc(C#Cc3ccccc3)cc2C2(CC2)C1` [Compound 39, 3-(6′-(phenylethynyl)-1′H-spiro[cyclopropane-1,4′-isoquinolin]-2′(3′H)-yl)propanoic acid acetic acid salt (1:1)], the EC50 in test [1] (cells given as bound) was over 1000 nM; in test [2] (cells given as bound), over 1000 nM; in test [3] it was 100 to 1000 nM; in test [4], over 1000 nM. The Emax in test [3] fell in the range of 50 to 100%.

Regarding `O=C(O)CCCN1Cc2ccc(C#Cc3ccc(OC4CCCC4)cc3)cc2C2(CC2)C1` [Compound 44, 4-(6′-((4-(cyclopentyloxy)phenyl)ethynyl)-1′H-spiro[cyclopropane-1,4′-isoquinolin]-2′(3′H)-yl)butanoic acid], the EC50 in test [1] (cells given as bound) was over 1000 nM; in test [2], 100 to 1000 nM; in test [3] it was under 10 nM; in test [4] it was over 1000 nM. Further, in test [3], the Emax is over 100%.

`O=C(O)CCCN1Cc2ccc(OCc3c(Cl)cccc3Cl)cc2C2(CC2)C1` [Compound 15, 4-(6′-((2,6-Dichlorobenzyl)oxy)-1′H-spiro[cyclopropane-1,4′-isoquinolin]-2′(3′H)-yl)butanoic acid]: the EC50 is 10 to 100 nM in test [1], over 1000 nM in test [2] (cells given as bound), under 10 nM in test [3] and over 1000 nM in test [4]. Moreover, in test [3], the Emax was over 100%.

With `CC(C)Oc1ccc(C#Cc2ccc3c(c2)C2(CC2)CN(CCCC(=O)O)C3)cn1` [Compound 2, 4-(6′-((6-isopropoxypyridin-3-yl)ethynyl)-1′H-spiro[cyclopropane-1,4′-isoquinolin]-2′(3′H)-yl)butanoic acid], the EC50 was over 1000 nM in test [1] (cells given as bound), over 1000 nM in test [2] (cells given as bound), under 10 nM in test [3] and over 1000 nM in test [4]. Moreover, in test [3], the Emax was 50 to 100%.

Consider `O=C(O)CCCN1Cc2ccc(C#Cc3ccc(OC(F)(F)F)c(F)c3)cc2C2(CC2)C1` [Compound 47, 4-(6′-((3-fluoro-4-(trifluoromethoxy)phenyl)ethynyl)-1′H-spiro[cyclopropane-1,4′-isoquinolin]-2′(3′H)-yl)butanoic acid], for which the EC50 was over 1000 nM in test [1] (cells given as bound), over 1000 nM in test [2] (cells given as bound), under 10 nM in test [3] and over 1000 nM in test [4]. Also, the Emax in test [3] was over 100%.

For `O=C(O)CCN1Cc2ccc(C#Cc3c(Cl)cccc3Cl)cc2C2(CC2)C1` [Compound 11, 3-(6′-((2,6-dichlorophenyl)ethynyl)-1′H-spiro[cyclopropane-1,4′-isoquinolin]-2′(3′H)-yl)propanoic acid], the EC50 in test [1] is 10 to 100 nM; in test [2] (cells given as bound) it was over 1000 nM; in test [3], under 10 nM; in test [4], over 1000 nM. Further, in test [3], the Emax fell in the range of 50 to 100%.

Consider `O=C(O)CCCN1Cc2ccc(OCc3cccc(OC(F)(F)F)c3)cc2C2(CC2)C1` [Compound 20, 4-(6′-((3-(Trifluoromethoxy)benzyl)oxy)-1′H-spiro[cyclopropane-1,4′-isoquinolin]-2′(3′H)-yl)butanoic acid], for which the EC50 is 100 to 1000 nM in test [1], over 1000 nM in test [2] (cells given as bound), 10 to 100 nM in test [3] and over 1000 nM in test [4]. Besides, the Emax in test [3] was under 50%.

With `CCc1cccc(Cl)c1COc1ccc2c(c1)C1(CC1)CN(CCCC(=O)O)C2` [Compound 27, 4-(6′-((2-Chloro-6-ethylbenzyl)oxy)-1′H-spiro[cyclopropane-1,4′-isoquinolin]-2′(3′H)-yl)butanoic acid], the EC50 in test [1] is under 10 nM; in test [2] (cells given as bound), over 1000 nM; in test [3], under 10 nM; in test [4], over 1000 nM. In addition, the Emax in test [3] was over 100%.

Take `O=C(O)CCN1Cc2ccc(C#Cc3cccc(Cl)c3)cc2C2(CC2)C1` [Compound 33, 3-(6′-((3-chlorophenyl)ethynyl)-1′H-spiro[cyclopropane-1,4′-isoquinolin]-2′(3′H)-yl)propanoic acid acetic acid salt (1:1)]: the EC50 in test [1] was under 10 nM; in test [2] (cells given as bound) it was over 1000 nM; in test [3], under 10 nM; in test [4], over 1000 nM. The Emax in test [3] is under 50%.

Consider `CCc1cccc(Cl)c1COc1ccc2c(c1)C1(CC1)CN(CC(=O)O)C2` [Compound 13, 2-(6′-((2-Chloro-6-ethylbenzyl)oxy)-1′H-spiro[cyclopropane-1,4′-isoquinolin]-2′(3′H)-yl)acetic acid], for which the concentration giving a half-maximal response (EC50) in test [1] was 100 to 1000 nM; in test [2] (cells given as bound), over 1000 nM; in test [3], under 10 nM; in test [4] it was over 1000 nM. Also, in test [3], the Emax lay in the range of 50 to 100%.

As for `O=C(O)CCCN1Cc2ccc(OCc3cccc(Cl)c3)cc2C2(CC2)C1` [Compound 24, 4-(6′-((3-Chlorobenzyl)oxy)-1′H-spiro[cyclopropane-1,4′-isoquinolin]-2′(3′H)-yl)butanoic acid], the EC50 in test [1] was 100 to 1000 nM; in test [2] (cells given as bound), over 1000 nM; in test [3] it was under 10 nM; in test [4], over 1000 nM. The Emax in test [3] fell in the range of 50 to 100%.

For the compound `O=C(O)CCN1Cc2ccc(C#Cc3ccc(F)cc3)cc2C2(CC2)C1` [Compound 41, 3-(6′-((4-fluorophenyl)ethynyl)-1′H-spiro[cyclopropane-1,4′-isoquinolin]-2′(3′H)-yl)propanoic acid acetic acid salt (1:1)], the EC50 in test [1] (cells given as bound) is over 1000 nM; in test [2] (cells given as bound), over 1000 nM; in test [3], 1000 to 10000 nM; in test [4], over 1000 nM. The Emax in test [3] is under 50%.

As to `O=C(O)CCCN1Cc2ccc(OCc3cccc(F)c3)cc2C2(CC2)C1` [Compound 23, 4-(6′-((3-Fluorobenzyl)oxy)-1′H-spiro[cyclopropane-1,4′-isoquinolin]-2′(3′H)-yl)butanoic acid], the EC50 is over 1000 nM in test [1] (cells given as bound), over 1000 nM in test [2] (cells given as bound), 10 to 100 nM in test [3] and over 1000 nM in test [4]. The Emax in test [3] fell in the range of 50 to 100%.

The values above are taken from patent US20210147381A1, “1,2,3,4-SUBSTITUTED QUINOLINE COMPOUNDS AS SIP MODULATORS” (AbbVie Deutschland GmbH & Co. KG, priority 2017, published 2021).
